Measurements reported in patent publication EP0802730B1, “PESTICIDAL COMPOUNDS” (BTG INTERNATIONAL LIMITED, priority 1995, dated 1996).
Values after ≈ are worked out from the molar mass of the structure shown.

tested on: Myzus persicae, extremely resistant strain (794Jz); experiment: Aphid dip test, resistant strain; format: in vivo; details: read-out: % mortality corrected for control data

SMILES	mortality at 100 ppm	mortality at 250 ppm	mortality at 40 ppm
CCC(C)(C)C1=C(O)C(=O)c2ccccc2C1=O [Example 1, 2-(1,1-dimethylpropyl)-3-hydroxynaphthalene-1,4-dione]	10%	43%	–
CCC(C)(C)C1=C(OC(C)=O)C(=O)c2ccccc2C1=O [Example 2, 2-(1,1-dimethylpropyl)-3-ethanoyloxy-naphthalene-1,4-dione]	17%	47%	–
CC(C)(C)C1=C(O)C(=O)c2ccccc2C1=O [Example 3, 2-(t-butyl)-3-hydroxy-naphthalene-1,4-dione]	13%	87%	10%
CC1(C2=C(O)C(=O)c3ccccc3C2=O)CCCCC1 [Example 25, 2-hydroxy-3-(1'-methylcyclohexyl)-naphthalene-1,4-dione]	27%	79%	10%

tested on: resistant strain of whitefly (Ned 1/2); experiment: Whitefly vial test, resistant strain Ned 1/2; format: in vivo; details: Bemisia tabaci, 48 h, read-out: BT (Ned 1/2) (LC50)
Procedure: Acetone solutions (0.100 ml) of the test compounds were placed in 10 ml glass vials and evaporated with rotation to deposit a film of the compound. Thirty adult whiteflies were placed inside the vial, then after 60 minutes, the treated insects were transferred onto untreated cotton leaf discs which were kept moist on a bed of agar gel. The temperature was maintained at 25°C and mortality assessed after 48 hours. Three replicates were used at each of 5 to 7 dose levels per compound. LC50 values (ppm solution) were calculated by using a computer software package ("Polo-PC available from LeOra Software, Berkeley, California) (See M.R. Cahill and B. Hackett in Proceedings Brighton Crop Protection Conference, 1992). The test was carried out using a susceptible strain of whitefly (SUD-S) which was collected in Sudan in 1978 from cotton.
The whitefly activity test with (BT (SUD-S)) was repeated using a resistant strain of whitefly (Ned 1/2).

SMILES	LC50
CC(C)(C)C1CCC(C2=C(O)C(=O)c3ccccc3C2=O)CC1 (stereo not drawn) [Compound B, 2-hydroxy-3-(4-t-butylcyclohexyl)-naphthalene-1,4-dione, reference compound]	100 µg/mL (≈ 320 µM)
CC1(C2=C(O)C(=O)c3ccccc3C2=O)CCCCC1 [Example 25, 2-hydroxy-3-(1'-methylcyclohexyl)-naphthalene-1,4-dione]	0.1 µg/mL (≈ 0.37 µM)
